Data reported in patent publication US20120027807A1, “TISSUE ENGINEERED MYOCARDIUM AND METHODS OF PRODUCTION AND USES THEREOF” (THE GENERAL HOSPITAL CORPORATION, priority 2008, published 2012).

Experiments:
[1] = system: R+G+ derived ventricular myocytes; type: cell-based, mouse
[2] = system: gap junctions (e.g. Connexin 43); experiment: Heptanol wash-in / wash-out on muscular thin film; type: cell-based, mouse
Source text: FIGS. 10A-10D show the tissue engineered myocardium on a muscular thin film derived from cardiac progenitor cells. […] All the heptanol was not washed-out resulting in the reduced contractility after cell-cell electrical coupling was restored.

SMILES | effect on the transmembrane action potential [1] | contractions after heptanol wash-out ([2]; partial wash-out) | coupling of cardiomyocytes by gap junctions ([2]; wash-in then wash-out of heptanol, MTF contractile force over time)
NC1=N[C@H](O)[C@H]2[C@H]3O[C@]4(O)O[C@@H]([C@@H](O)[C@@]2(N1)[C@@H]4O)[C@]3(O)CO [TTX, tetrodotoxin] | ablated the action potential |  | 
CCCCCCCO [heptanol] |  | partial washout restores contractions | reversibly blocked
